Results reported in US10828315B2 (Madrigal Pharmaceuticals, Inc., priority 2013, dated 2020).
Where “and” joins values, the source holds several entries; their conditions need not be identical. Identical values can stand only once. Like-named read-outs stand apart in the source and are kept apart here. Blank lines part the entries; values can stand above or below the molecule they belong to.

What was measured:
[1] = mouse, plasma, 1 h
[2] = Mouse plasma stability protocol, up to 1 h (Examples 16-18); settings: for % Remaining (1 h): % Remaining of parent after 1 h incubation in mouse plasma at 37° C. (10 μM); for % Remaining (1 h, 37° C.): mouse plasma
[3] = Tissue Distribution Data for SDC-TRAP-0056
HER2 = HER2 degradation assay with BT-474 cell line (Example 12, FACS); format: cell-based, human

SMILES: CCc1c2c(nc3ccc(O)cc13)-c1cc3c(c(=O)n1C2)COC(=O)C3(CC)OC(=O)N(C)CCCCN1CCN(Cc2ccc(-n3c(O)nnc3-c3cc(C(C)C)c(O)cc3O)cc2)CC1 (centres unmarked) [SDC-TRAP-0055, 4,11-diethyl-9-hydroxy-3,14-dioxo-3,4,12,14-tetrahydro-1H-pyrano[3′,4′:6,7]indolizino[1,2-b]quinolin-4-yl (4-(4-(4-(3-(2,4-dihydroxy-5-isopropylphenyl)-5-hydroxy-4H-1,2,4-triazol-4-yl)benzyl)piperazin-1-yl)butyl)(methyl)carbamate]
% Remaining (1 h) ([1]; 10 µM): 103%
% Remaining (1 h, 37° C.) ([1]; 10 µM): 103%

SMILES: CCc1c2c(nc3ccc(O)cc13)-c1cc3c(c(=O)n1C2)COC(=O)C3(CC)OC(=O)CN1CCN(c2ccc(-n3c(O)nnc3-c3cc(C(C)C)c(O)cc3O)cc2)CC1 (centres unmarked) [SDC-TRAP-0056, 4,11-diethyl-9-hydroxy-3,14-dioxo-3,4,12,14-tetrahydro-1H-pyrano[3′,4′:6,7]indolizino[1,2-b]quinolin-4-yl 2-(4-(4-(3-(2,4-dihydroxy-5-isopropylphenyl)-5-hydroxy-4H-1,2,4-triazol-4-yl)phenyl)piperazin-1-yl)acetate]
% Remaining (1 h) [2]: 78.4%
% Remaining (1 h, 37° C.) [2]: 78%
Plasma Conc. ([3]; Time (h) 0.083): 1220 µM
Tumor Conc. ([3]; Time (h) 0.083): 6.40 nmol/g of tissue
Tumor/Plasma Ratio ([3]; Time (h) 0.083): 0.00525
Plasma Conc. ([3]; Time (h) 6): 2.06 µM
Tumor Conc. ([3]; Time (h) 6): 2.65 nmol/g of tissue
Tumor/Plasma Ratio ([3]; Time (h) 6): 1.28
Plasma Conc. ([3]; Time (h) 12): 0.382 µM
Tumor Conc. ([3]; Time (h) 12): 0.746 nmol/g of tissue
Tumor/Plasma Ratio ([3]; Time (h) 12): 1.95
Plasma Conc. ([3]; Time (h) 24): 0.0343 µM
Tumor Conc. ([3]; Time (h) 24): BQL
Plasma Conc. ([3]; Time (h) 48): BQL
Tumor Conc. ([3]; Time (h) 48): BQL
IC50 (HER2): 1.27 µM

SMILES: COc1ccc(-c2cnoc2-c2cc(OC)c(OC)c(OC)c2)cc1OC(=O)N1CCN(c2ccc(-n3c(O)nnc3-c3cc(C(C)C)c(O)cc3O)cc2)CC1 [SDC-TRAP-0099, 2-methoxy-5-(5-(3,4,5-trimethoxyphenyl)isoxazol-4-yl)phenyl-4-(4-(3-(2,4-dihydroxy-5-isopropylphenyl)-5-hydroxy-4H-1,2,4-triazol-4-yl)phenyl) piperazine-1-carboxylate]
% Remaining (1 h) ([1]; 10 µM): 95.2%

SMILES: CC(C)c1cc(-c2nnc(O)n2-c2ccc(CN3CCN(C(=O)COC(=O)Nc4cccc5c4CN(C4CCC(=O)NC4=O)C5=O)CC3)cc2)c(O)cc1O (centres unmarked) [SDC-TRAP-0121, 2-(4-(4-(3-(2,4-dihydroxy-5-isopropylphenyl)-5-hydroxy-4H-1,2,4-triazol-4-yl)benzyl)piperazin-1-yl)-2-oxoethyl(2-(2,6-dioxopiperidin-3-yl)-1-oxoisoindolin-4-yl)carbamate]
% Remaining (1 h) ([1]; 10 µM): 89.1%

SMILES: CCNC(=O)c1nnc(-c2cc(C(C)C)c(O)cc2O)n1-c1ccc(CN2CCC(C(=O)N3CCC(OC(=O)Nc4cccc5c4CN(C4CCC(=O)NC4=O)C5=O)CC3)CC2)cc1 (centres unmarked) [SDC-TRAP-0123, 1-(1-(4-(3-(2,4-Dihydroxy-5-isopropylphenyl)-5-(ethylcarbamoyl)-4H-1,2,4-triazol-4-yl)benzyl)piperidine-4-carbonyl)piperidin-4-yl (2-(2,6-dioxopiperidin-3-yl)-1-oxoisoindolin-4-yl)carbamate]
% Remaining (1 h) ([1]; 10 µM): 95.6%

SMILES: CC(C)c1cc(-c2nnc(O)n2-c2ccc(CN3CCN(C(=O)O[C@H]4CC[C@@]5(C)C(=CC[C@@H]6[C@@H]5CC[C@]5(C)C(c7cccnc7)=CC[C@@H]65)C4)CC3)cc2)c(O)cc1O [SDC-TRAP-0150, (3S,8R,9S,10R,13S,14S)-10,13-dimethyl-17-(pyridin-3-yl)-2,3,4,7,8,9,10,11,12,13,14,15-dodecahydro-1H-cyclopenta[a]phenanthren-3-yl 4-(4-(3-(2,4-dihydroxy-5-isopropylphenyl)-5-hydroxy-4H-1,2,4-triazol-4-yl)benzyl) piperazine-1-carboxylate]
% Remaining (1 h) ([1]; 10 µM): 103%
% Remaining (1 h) ([1]; 10 μM): 103%

SMILES: CCNC(=O)c1nnc(-c2cc(C(C)C)c(O)cc2O)n1-c1ccc(OC2CCN(C(=O)C3CCN(C(=O)Oc4ccc5nc6c(c(CC)c5c4)Cn4c-6cc5c(c4=O)COC(=O)[C@]5(O)CC)C(C)C3)CC2)cc1 (stereo partly drawn) [SDC-TRAP-0213, (S)-4,11-diethyl-4-hydroxy-3,14-dioxo-3,4,12,14-tetrahydro-1H-pyrano[3′,4′:6,7]indolizino[1,2-b]quinolin-9-yl 4-(4-(4-(3-(2,4-dihydroxy-5-isopropylphenyl)-5-(ethylcarbamoyl)-4H-1,2,4-triazol-4-yl)phenoxy)piperidine-1-carbonyl)-2-methylpiperidine-1-carboxylate]
% Remaining (1 h) [2]: 74.7%
% Remaining (1 h, 37° C.) [2]: 74.7%
IC50 (HER2): 0.248 µM

SMILES: CCc1c2c(nc3ccc(OC(=O)N4CCCCC4C(=O)N4CCC(CCn5ccc6cc(-n7c(O)nnc7-c7cc(C(C)C)c(O)cc7O)ccc65)CC4)cc13)-c1cc3c(c(=O)n1C2)COC(=O)[C@]3(O)CC (stereo partly drawn) [SDC-TRAP-0215, (S)-4,11-diethyl-4-hydroxy-3,14-dioxo-3,4,12,14-tetrahydro-1H-pyrano[3′,4′:6,7]indolizino[1,2-b]quinolin-9-yl 2-(4-(2-(5-(3-(2,4-dihydroxy-5-isopropylphenyl)-5-hydroxy-4H-1,2,4-triazol-4-yl)-1H-indol-1-yl)ethyl)piperidine-1-carbonyl)piperidine-1-carboxylate]
% Remaining (1 h, 37° C.) [2]: 77.2%
IC50 (HER2): 2.75 µM

SMILES: CCc1c2c(nc3ccc(OC(=O)N4CCN(Cc5ccc(-n6c(O)nnc6-c6cc(C(C)C)c(O)cc6O)cc5)CC4C)cc13)-c1cc3c(c(=O)n1C2)COC(=O)C3(O)CC (centres unmarked) [SDC-TRAP-0220, 4,11-diethyl-4-hydroxy-3,14-dioxo-3,4,12,14-tetrahydro-1H-pyrano[3′,4′:6,7]indolizino[1,2-b]quinolin-9-yl 4-(4-(3-(2,4-dihydroxy-5-isopropylphenyl)-5-hydroxy-4H-1,2,4-triazol-4-yl)benzyl)-2-methylpiperazine-1-carboxylate]
% Remaining (1 h, 37° C.) [2]: 78.3%
IC50 (HER2): 0.474 µM and 0.445 µM

Next, values leading:

% Remaining (1 h) ([1]; 10 µM): 85.9%
SMILES: COc1cc(O)c(-c2nnc(C(=O)NC(C)C)n2-c2ccc(CN3CCC(C(=O)Nc4cccc5c4CN(C4CCC(=O)NC4=O)C5=O)CC3)cc2)cc1C(C)C (centres unmarked) [SDC-TRAP-0115, N-(2-(2,6-dioxopiperidin-3-yl)-1-oxoisoindolin-4-yl)-1-(4-(3-(2-hydroxy-5-isopropyl-4-methoxyphenyl)-5-(isopropylcarbamoyl)-4H-1,2,4-triazol-4-yl)benzyl)piperidine-4-carboxamide]

% Remaining (1 h) ([1]; 10 µM): 112%
SMILES: CCNC(=O)c1nnc(-c2cc(C(C)C)c(O)cc2O)n1-c1ccc(CN2CCC(C(=O)N3CCC(COC(=O)Nc4cccc5c4CN(C4CCC(=O)NC4=O)C5=O)CC3)CC2)cc1 (centres unmarked) [SDC-TRAP-0124, (1-(1-(4-(3-(2,4-Dihydroxy-5-isopropylphenyl)-5-(ethylcarbamoyl)-4H-1,2,4-triazol-4-yl)benzyl)piperidine-4-carbonyl)piperidin-4-yl)methyl (2-(2,6-dioxopiperidin-3-yl)-1-oxoisoindolin-4-yl)carbamate]

% Remaining (1 h) ([1]; 10 µM): 99.4%
SMILES: CCNC(=O)c1nnc(-c2cc(C(C)C)c(O)cc2O)n1-c1ccc(Oc2ccc(C(=O)N3CCC(COC(=O)Nc4cccc5c4CN(C4CCC(=O)NC4=O)C5=O)CC3)cc2)cc1 (centres unmarked) [SDC-TRAP-0125, (1-(4-(4-(3-(2,4-Dihydroxy-5-isopropylphenyl)-5-(ethylcarbamoyl)-4H-1,2,4-triazol-4-yl)phenoxy)benzoyl)piperidin-4-yl)methyl (2-(2,6-dioxopiperidin-3-yl)-1-oxoisoindolin-4-yl)carbamate]

% Remaining (1 h) ([1]; 10 µM): 87.3%
SMILES: CC(C)c1cc(-c2nnc(O)n2-c2ccc(CC(=O)N(C)CCOC(=O)Nc3cccc4c3CN(C3CCC(=O)NC3=O)C4=O)cc2)c(O)cc1O (centres unmarked) [SDC-TRAP-0127, 2-(2-(4-(3-(2,4-dihydroxy-5-isopropylphenyl)-5-hydroxy-4H-1,2,4-triazol-4-yl)phenyl)-N-methylacetamido)ethyl(2-(2,6-dioxopiperidin-3-yl)-1-oxoisoindolin-4-yl)carbamate]

% Remaining (1 h) ([1]; 10 µM): 108%
SMILES: CCNC(=O)c1nnc(-c2cc(C(C)C)c(O)cc2O)n1-c1ccc(CN2CCC(C(=O)N3CCC(n4cc(-c5cnc(N)c(O[C@H](C)c6c(Cl)ccc(F)c6Cl)c5)cn4)CC3)CC2)cc1 [SDC-TRAP-0134, (R)-4-(4-((4-(4-(4-(6-amino-5-(1-(2,6-dichloro-3-fluorophenyl)ethoxy)pyridin-3-yl)-1H-pyrazol-1-yl)piperidine-1-carbonyl)piperidin-1-yl)methyl)phenyl)-5-(2,4-dihydroxy-5-isopropylphenyl)-N-ethyl-4H-1,2,4-triazole-3-carboxamide]

% Remaining (1 h) ([1]; 10 µM): 98.1%
SMILES: CCNC(=O)c1nnc(-c2cc(C(C)C)c(O)cc2O)n1-c1ccc(C(=O)N(C)CC(=O)Nc2cccc3c2CN(C2CCC(=O)NC2=O)C3=O)cc1 (centres unmarked) [SDC-TRAP-0147, 5-(2,4-dihydroxy-5-isopropylphenyl)-4-(4-((2-((2-(2,6-dioxopiperidin-3-yl)-1-oxoisoindolin-4-yl)amino)-2-oxoethyl)(methyl)carbamoyl)phenyl)-N-ethyl-4H-1,2,4-triazole-3-carboxamide]

% Remaining (1 h) ([1]; 10 µM): 90.3%
SMILES: CC(C)c1cc(-c2nnc(O)n2-c2ccc(N3CCN(C(=O)c4ccc(COC(=O)Nc5cccc6c5CN(C5CCC(=O)NC5=O)C6=O)cc4)CC3)cc2)c(O)cc1O (centres unmarked) [SDC-TRAP-0156, 4-(4-(4-(3-(2,4-Dihydroxy-5-isopropylphenyl)-5-hydroxy-4H-1,2,4-triazol-4-yl)phenyl)piperazine-1-carbonyl)benzyl (2-(2,6-dioxopiperidin-3-yl)-1-oxoisoindolin-4-yl)carbamate]

% Remaining (1 h) ([1]; 10 µM): 81.4%
SMILES: CC(C)c1cc(-c2nnc(O)n2-c2ccc(CN3CCN(C(=O)c4ccc(COC(=O)Nc5cccc6c5CN(C5CCC(=O)NC5=O)C6=O)cc4)CC3)c(F)c2)c(O)cc1O (centres unmarked) [SDC-TRAP-0157, 4-(4-(4-(3-(2,4-dihydroxy-5-isopropylphenyl)-5-hydroxy-4H-1,2,4-triazol-4-yl)-2-fluorobenzyl)piperazine-1-carbonyl)benzyl (2-(2,6-dioxopiperidin-3-yl)-1-oxoisoindolin-4-yl)carbamate]
